Measured values reported in BindingDB's records for doi:10.1021/acs.jmedchem.6b01300 (Invivogen, 2016).
pEC50: −log10 of the molar value.

Columns and labels:
[1] = biological target: T1, Stimulator of interferon genes protein (Homo sapiens, UniProt Q86WV6); assay: Activation of STING in human THP-1-Dual cells assessed as induction of type I IFNs by measuring stimulation of NF-kappaB pathway incubated for 48 hrs by luciferase reporter gene assay
[2] = biological target: T1, Stimulator of interferon genes protein; assay: Activation of STING in human THP-1-Dual cells assessed as induction of type I IFNs by measuring stimulation of IRF pathway incubated for 48 hrs by luciferase reporter gene assay

T1 sequence (Q86WV6 whole entry): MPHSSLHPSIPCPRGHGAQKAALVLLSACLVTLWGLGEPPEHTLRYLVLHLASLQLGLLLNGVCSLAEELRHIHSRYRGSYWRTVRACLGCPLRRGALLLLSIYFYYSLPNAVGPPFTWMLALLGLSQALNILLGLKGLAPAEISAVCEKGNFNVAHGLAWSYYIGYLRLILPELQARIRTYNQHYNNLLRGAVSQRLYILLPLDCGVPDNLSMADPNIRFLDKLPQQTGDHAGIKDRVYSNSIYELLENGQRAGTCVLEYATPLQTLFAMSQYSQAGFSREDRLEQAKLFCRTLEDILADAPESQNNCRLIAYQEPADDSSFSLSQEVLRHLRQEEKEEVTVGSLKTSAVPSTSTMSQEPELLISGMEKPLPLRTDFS

SMILES | pEC50 [1] | pEC50 [2]
Nc1ncnc2c1ncn2[C@@H]1O[C@@H]2COP(=O)(S)O[C@H]3[C@@H](O)[C@H](n4cnc5c(O)ncnc54)O[C@@H]3COP(=O)(S)O[C@H]2[C@H]1O (stereo partly specified) | 5.11 | 5.80
Nc1ncnc2c1ncn2[C@H]1C[C@@H]2OP(=O)(O)OC[C@H]3O[C@@H](n4cnc5c(O)ncnc54)C[C@@H]3OP(=O)(O)OC[C@H]2O1 | 4.21 | 
Nc1ncnc2c1ncn2[C@@H]1O[C@@H]2COP(=O)(O)O[C@H]3[C@@H](F)[C@H](n4cnc5c(O)ncnc54)O[C@@H]3COP(=O)(O)O[C@H]2[C@H]1F | 4.81 | 5.96
Nc1ncnc2c1ncn2[C@@H]1O[C@@H]2COP(=O)(S)O[C@H]3[C@@H](F)[C@H](n4cnc5c(O)ncnc54)O[C@@H]3COP(=O)(S)O[C@H]2[C@H]1F (stereo partly specified) | 5.80 | 6.52
Nc1ncnc2c1ncn2[C@@H]1O[C@@H]2COP(=O)(O)O[C@H]3C[C@H](n4cnc5c(O)ncnc54)O[C@@H]3COP(=O)(O)O[C@H]2[C@H]1F | 4.59 | 5.85
Nc1ncnc2c1ncn2[C@H]1C[C@@H]2OP(=O)(O)OC[C@H]3O[C@@H](n4cnc5c(O)ncnc54)[C@H](F)[C@@H]3OP(=O)(O)OC[C@H]2O1 | 4.49 | 5.64
